Measurements taken from patent publication US8388930B2, “Diagnosis and assessment of skeletal related disease using calcium 41” (Lawrence LIvermore National Security, LLC, priority 2004, dated 2013).

What was measured:
[1] = urinary 41Ca/Ca variability in monthly urine samples after oral 41Ca dose; format: in vivo; settings: days 500 to 700 after 1.2 ng oral 41Ca dose, six human volunteers
Source text: ^41Ca remains quantifiable via accelerator mass spectrometry (AMS) in human urine and blood for many years following a single chemically and radiologically benign oral or intravenous dose; this longevity makes urinary ^41Ca content very specific to bone turnover. […] Applicants also measured tracer distribution and increased ^41Ca release from pre-labeled bones in a human xenograft model of metastatic bone disease from prostate cancer. […] Low natural variability of urinary ^41Ca/Ca in humans will enable a non-invasive, highly sensitive clinical measure of bone turnover perturbations from metastatic bone disease.

[2] = tested on: human xenograft model of metastatic bone disease from prostate cancer; experiment: tracer distribution and 41Ca release from pre-labeled bones in human xenograft model of metastatic bone disease; format: in vivo, nude mice
Source text: However, the ultimate value of these techniques for individual patients is uncertain, due (in part) to high natural variability of biomarkers in urine and serum (Kannis J A, McCloskey E V. Bone turnover and biochemical markers in malignancy. Cancer. 1997; 80:1538-45). Applicants believe that labeling the human skeleton with a ^41Ca tracer and monitoring urinary tracer abundance will provide a non-invasive, highly sensitive, clinically useful measure of bone turnover. The longest half-life isotope of calcium, ^41Ca, provides a sensitive method for tracking short and long-term bone turnover parameters. Due to extremely low natural abundance (<10^−15), a single sub-physiological ^41Ca dose (less than 1 ug=4 kBq=0.1 uCi) remains quantifiable via accelerator mass spectrometry (AMS) in blood and urine for many years: this longevity within the body's primary calcium pool makes ^41Ca variation specific to bone turnover (Weaver C M. Use of calcium tracers and biomarkers to determine calcium kinetics and bone turnover. Bone. 1998; 22(5):103S-104S). […]
^41Ca remains quantifiable via accelerator mass spectrometry (AMS) in human urine and blood for many years following a single chemically and radiologically benign oral or intravenous dose; this longevity makes urinary ^41Ca content very specific to bone turnover. […]

[3] = cited from earlier work

[41Ca] [^41Ca, radioactive calcium isotope ^41Ca]
41Ca/Ca scatter about individual linear fits [1]: 5±3% | tracer distribution ([2]; human xenograft tumor model in nude mice): preferentially labels bone | serum 41Ca/Ca correlation with disease measures ([2]; serum, pre-labeled bones, xenograft model of prostate cancer bone metastasis): positively correlating with tumor size, skeletal disruption, serum tumor markers, and degree of hypercalcemia | lifetime radioactive exposure from ingested dose ([3]; ingested): < 2e-10 Sv/Bq | lifetime radioactive exposure from injected dose ([3]; injected): < 7e-10 Sv/Bq
